One assay deals with c-Cbl (Homo sapiens (Human), UniProt P22681). Kind of assay: C-cbl LCK Ub TR-FRET assay (C-cbl Lck HTRF). It is filed as biochemical. As to the method: (§1) Compounds were 3-fold serially diluted in DMSO in a 384-well polypropylene plate (#P-05525-BC; Labcyte) to generate a source plate with 10 concentrations of each compound, top concentration=2 mM. 80 nL of DMSO or compounds were transferred to each well of a black 384-well ProxiPlate (#6008260; PerkinElmer) using a Labcyte Echo. 1× assay buffer (50 mM HEPES pH7.0, 100 mM NaCl, 0.01% BSA, 0.01% Triton-X100, 1 mM DTT), 2× enzyme solution (16 nM Biotin-Cbl-b or 12 nM Biotin-c-Cbl in 1× assay buffer), 2× kinase mixture (120 nM His-LCK, 1 mM ATP, 10 mM MgCl2 in assay buffer) and 2.33× detection mixture (4.66× solution 1: 163 nM Anti-HA-D2 antibody (#610HADAB; PerkinElmer), 27.96 nM Streptavidin-EU (#AD0062; PerkinElmer), 1.398 mM EDTA in 1× assay buffer+4.66× solution 2: 2.796 μM UBE2D2/Methylated-HA-Ubiquitin thioester adduct (BostonBiochem) in 1× assay buffer) were prepared. 4 μL of 2× enzyme solution was added to each well containing compound, briefly centrifuged to mix, and incubated for 60 min at room temperature. 4 μL of 2× kinase mixture was added, briefly centrifuged to mix, and incubated for 90 min. at room temperature. 6 μL of detection mixture was added to all wells and briefly centrifuged before incubating for 20 min at room temperature. Plates were read for TR-FRET using an Envision at excitation 340 nm, emission at 615 and 665 nm, 4 flashes per well. IC50 was generated using no LCK as the low control and DMSO as the high control.
c-Cbl, sequence (P22681 47-435): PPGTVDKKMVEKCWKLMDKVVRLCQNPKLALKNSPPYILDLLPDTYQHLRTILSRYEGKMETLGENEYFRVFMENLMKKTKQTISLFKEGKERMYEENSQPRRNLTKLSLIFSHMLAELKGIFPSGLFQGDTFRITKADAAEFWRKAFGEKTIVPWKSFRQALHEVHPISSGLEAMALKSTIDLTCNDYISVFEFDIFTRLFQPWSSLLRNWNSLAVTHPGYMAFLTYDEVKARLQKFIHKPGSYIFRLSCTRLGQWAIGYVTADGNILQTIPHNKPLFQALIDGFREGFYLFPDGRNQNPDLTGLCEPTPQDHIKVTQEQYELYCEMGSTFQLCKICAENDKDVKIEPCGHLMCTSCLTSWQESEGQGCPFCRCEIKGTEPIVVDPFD
(§2) Cbl-b Lck HTRF data in Table 3 is measured according to Example 25 herein; C-cbl Lck HTRF data is measured according to Example 25 herein.
(§3) SPR and the LCK biochemical assay are orthogonal assays: SPR is a protein binding assay while the LCK assay is an enzyme activity assay. SPR measures compound binding affinity to CBL-B/C-CBL, whereas LCK assay measures compound inhibition of CBL-B/C-CBL ubiquitin transfer activity.

Another assay addresses Cbl-b (Homo sapiens (Human), UniProt Q13191). As to the kind of experiment: Cbl-b LCK Ub TR-FRET assay (Cbl-b Lck HTRF). In kind it is biochemical. Conditions: for (fold-selectivity): Cbl-b and C-Cbl selectivity, Lck HTRF; for IC50: read-out: Cbl-b Lck HTRF IC50. How it is done:
as §1, §2, §3
A general note: TR-FRET usually uses a lanthanide donor and a delayed reading to cut background.

Cbl-b, sequence (Q13191 40-426): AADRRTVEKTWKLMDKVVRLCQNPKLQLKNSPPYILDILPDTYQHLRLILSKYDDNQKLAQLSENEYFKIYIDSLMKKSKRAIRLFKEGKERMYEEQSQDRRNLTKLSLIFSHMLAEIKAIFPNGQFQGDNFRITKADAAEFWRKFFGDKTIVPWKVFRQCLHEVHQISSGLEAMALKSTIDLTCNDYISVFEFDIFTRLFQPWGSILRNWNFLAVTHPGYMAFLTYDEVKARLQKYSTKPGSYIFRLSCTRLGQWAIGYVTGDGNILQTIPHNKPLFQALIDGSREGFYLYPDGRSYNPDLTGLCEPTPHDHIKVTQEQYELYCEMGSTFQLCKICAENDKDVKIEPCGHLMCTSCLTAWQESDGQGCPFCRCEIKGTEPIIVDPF

By IC50 is commonly meant the concentration needed to halve the response being measured. At c-Cbl, `Cn1cnnc1[C@H](F)[C@@]1(c2cccc(NC(=O)c3cccc(C(F)(F)F)n3)c2)CCO1` [Compound 501, N-(3-((S)-2-((S)-fluoro(4-methyl-4H-1,2,4-triazol-3-yl)methyl)oxetan-2-yl)phenyl)-6-(trifluoromethyl)picolinamide] showed an IC50 of 17000 nM. Besides, on Cbl-b, the “(fold-selectivity)” value was “(1.1x)” and the IC50 was 15000 nM.

Compound `CN(C)Cc1cc(C(=O)Nc2cccc(C3(Cc4nncn4C)COC3)c2)nc(C(F)(F)F)c1` [Compound 67, 4-((dimethylamino)methyl)-N-(3-(3-((4-methyl-4H-1,2,4-triazol-3-yl)methyl)oxetan-3-yl)phenyl)-6-(trifluoromethyl)picolinamide] yielded an IC50 against c-Cbl of 340 nM. On Cbl-b, the “(fold-selectivity)” value is reported as “(1.6x)” and the IC50 is 210 nM.

On c-Cbl, `C[C@H](c1cc(C(=O)Nc2cccc(C3([C@@H](F)c4nncn4C)COC3)c2)nc(C2CC2)c1)N1CCC2(CC2)C1` [Compound 23, 4-((R)-1-(5-azaspiro[2.4]heptan-5-yl)ethyl)-6-cyclopropyl-N-(3-(3-((R)-fluoro(4-methyl-4H-1,2,4-triazol-3-yl)methyl)oxetan-3-yl)phenyl)picolinamide] displayed an IC50 of 47 nM. Also, at Cbl-b, the “(fold-selectivity)” value is reported as “(0.94x)” and the IC50 was found to be 50 nM.

Turning to `Cn1cnnc1CC1(c2cccc(NC(=O)c3cc(CN4CC(C)(O)C4)cc(C4CC4)n3)c2)CC(F)(F)C1` [Compound 495, 6-cyclopropyl-N-(3-(3,3-difluoro-1-((4-methyl-4H-1,2,4-triazol-3-yl)methyl)cyclobutyl)phenyl)-4-((3-hydroxy-3-methylazetidin-1-yl)methyl)picolinamide], on c-Cbl, the IC50 is 12 nM. Moreover, on Cbl-b, the “(fold-selectivity)” value is “(0.68x)” and the 50% inhibitory concentration (IC50) was determined as 17 nM.

At c-Cbl, `Cn1cnnc1[C@H](F)[C@](C)(F)c1cccc(NC(=O)c2cc(CN3CC(C)(F)C3)nc(C3CC3)n2)c1` [Compound 43, 2-cyclopropyl-N-(3-((1S,2R)-1,2-difluoro-1-(4-methyl-4H-1,2,4-triazol-3-yl)propan-2-yl)phenyl)-6-((3-fluoro-3-methylazetidin-1-yl)methyl)pyrimidine-4-carboxamide] returned a half-inhibitory concentration (IC50) of 740 nM. Further, on Cbl-b, the “(fold-selectivity)” value was “(2.3x)” and the IC50 came to 320 nM.

For `Cn1cnnc1[C@H](F)C1(c2cccc(NC(=O)c3cc(CN4CC(C)(F)C4)cc(C(F)(F)F)n3)c2)COC1` [Compound 60, (R)-N-(3-(3-(fluoro(4-methyl-4H-1,2,4-triazol-3-yl)methyl)oxetan-3-yl)phenyl)-4-((3-fluoro-3-methylazetidin-1-yl)methyl)-6-(trifluoromethyl)picolinamide], the IC50 against c-Cbl stood at 330 nM. On Cbl-b, the “(fold-selectivity)” value is reported as “(2.5x)” and the IC50 is 130 nM.

In turn, `Cn1cnnc1CC1(c2cccc(NC(=O)c3cc(C(CC4CC4)N4CCC5(CC5)C4)cc(C(F)(F)F)n3)c2)COC1` (stereo not drawn) [Compound 505, 4-(2-cyclopropyl-1-(5-azaspiro[2.4]heptan-5-yl)ethyl)-N-(3-(3-((4-methyl-4H-1,2,4-triazol-3-yl)methyl)oxetan-3-yl)phenyl)-6-(trifluoromethyl)picolinamide] yielded an IC50 on c-Cbl of 39 nM. Moreover, at Cbl-b, the “(fold-selectivity)” value is reported as “(1.5x)” and the 50% inhibitory concentration (IC50) was 26 nM.

For the compound `Cn1cnnc1[C@H](F)[C@@](C)(F)c1cccc(NC(=O)c2cc(CN3CCC4(CC4)C3)cc(C3CC3)n2)c1` [Compound 36, 4-(5-azaspiro[2.4]heptan-5-ylmethyl)-6-cyclopropyl-N-(3-((1S,2S)-1,2-difluoro-1-(4-methyl-4H-1,2,4-triazol-3-yl)propan-2-yl)phenyl)picolinamide], the midpoint of inhibition at c-Cbl, the IC50, lay at 240 nM. Besides, on Cbl-b, the “(fold-selectivity)” value is reported as “(1.8x)” and the concentration for half-maximal inhibition (IC50) is 140 nM.
